“Also recorded” adds a separate entry of the source. Like-named read-outs stand apart in the source and are kept apart here. Marks after values point to notes of the source that are not given here.
Legend:
[1] = Population pharmacokinetic modelling of DHA and piperaquine plasma concentrations in healthy Thai volunteers; assay type: in vivo, human; conditions: for Cmax / Tmax / half-life / AUC: both sexes, plasma, oral; for Cmax: read-out: CMAX, median (range); for Tmax: read-out: TMAX, median (range); for MTT (mean transit time), population estimate (%RSE): oral DHA-piperaquine three tablets; for AUC: read-out: AUC (time zero to infinity), median (range)
Protocol: It was a descriptive pharmacokinetic-pharmacodynamic study and no formal sample size calculations were performed. […] All volunteers received primaquine alone in the first phase, followed by a washout period of 1 week. In the second and third phases, volunteers received DHA-piperaquine alone and DHA-piperaquine coadministered with primaquine at random, with an intervening washout period of 8 weeks. Study drug regimens comprised two tablets of primaquine (each tablet containing 15 mg primaquine base) and three tablets of co-formulated DHA-piperaquine (each tablet containing 40 mg DHA and 320 mg piperaquine phosphate). Study drugs were administered in the morning, 30 min after a light meal (~200 kcal and 8 g fat) with a glass of water. Venous blood samples (2 ml) were collected into fluoride-oxalate blood collection tubes. Blood samples were taken at 0 (predose), 0.25, 0.5, 1, 1.5, 2, 3, 4, 6, 8, 10, 12, and 24 h postdose. Additional blood samples were taken at days 3, 4, 7, 11, 15, 22, and 36 for piperaquine drug measurements. The exact drug administration and sampling times were recorded. Blood and plasma were separated by centrifugation at 2000 × g at 4°C for 7 min. All plasma samples were stored below -70°C and transferred on dry ice to the Department of Clinical Pharmacology, Mahidol-Oxford Tropical Medicine Research Unit (MORU), Bangkok, Thailand, for drug quantification. Plasma concentrations of DHA and piperaquine were measured using solid-phase extraction followed by liquid chromatography coupled with tandem mass spectrometry 25, 26. Quality control samples at low, middle and high concentration (5.87, 117 and 1880 ng ml^-1 for DHA and 4.50, 20.0 and 400 ng ml^-1 for piperaquine) were analysed in triplicate within each batch of study samples, to ensure the accuracy and precision of the drug assay. […] The lower limit of quantification (LLOQ) was set to be 2.00 ng ml^-1 for DHA and 1.50 ng ml^-1 for piperaquine. The laboratory is a participant in the QA/QC proficiency testing programme supported by the Worldwide Antimalarial Resistance Network 27. DHA and piperaquine plasma concentrations were transformed into their natural logarithms and analysed using a nonlinear mixed-effects modelling approach in NONMEM version 7.3 (Icon Development Solution, Ellicott City, MD, USA). […] version 2.9.0 28, Perl-speaks-NONMEM version 3.5.3 (PsN) 29 and Xpose version 4.0 30 were used for automation, model evaluation and diagnostics during the model-building process. The first-order conditional estimation method with interactions (continuous data only) or the Laplacian estimation method (a combination of continuous and categorical data) was used throughout modelling and simulation. […] Therefore, two LLOQ methods were evaluated during the model-building process 31. Data below the LLOQ were omitted (M1 method) or modelled as categorical data (M3 method). Model fitness was evaluated primarily by the objective function value (OFV; calculated by NONMEM as proportional to -2 × log-likelihood of the data). […] One-, two-, three- and four-compartment structural disposition models were evaluated for DHA and piperaquine. The best performing model was used to evaluate the absorption characteristics of DHA and piperaquine (i.e. first-order absorption with and without lag time, zero-order absorption and transit absorption). The transit compartment absorption model is a more mechanistic description of delayed absorption compared with the dichotomous properties of a lag-time model 32.

[2] = Drug-drug interaction with primaquine coadministration (stepwise and full covariate approach, bootstrap n = 1000); assay type: in vivo, human; conditions: for Effect of primaquine coadministration on pharmacokinetic properties: stepwise covariate approach
Text: All continuous and categorical covariates (aspartate aminotransferase, alanine aminotransferase, alkaline phosphatase, haemoglobin, blood urea nitrogen, serum creatinine level, albumin level, primaquine coadministration and age) were investigated by using a stepwise forward inclusion (P‐value <0.05), followed by stepwise backward elimination (P‐value >0.001). A strict P‐value of 0.001 for the backward elimination was used as there were relatively few subjects in the present study 34. Gender was not evaluated as a covariate owing to the substantial imbalance between male and female subjects (five males out of 16 subjects). The effect of primaquine coadministration was also modelled separately, using a full covariate approach in which the primaquine coadministration was implemented as a categorical covariate on all pharmacokinetic parameters (except relative bioavailability owing to identifiability issues) in the final pharmacokinetic model. The full covariate models were bootstrapped (n = 1000) to determine a potentially influential drug–drug interaction on primary and secondary pharmacokinetic parameters. A primaquine‐dependent change of more than ±25% in parameter estimates was deemed a clinically relevant drug–drug interaction.

QT interval = test: Population pharmacokinetic-pharmacodynamic model of piperaquine concentration vs double-delta-corrected QTc prolongation (12-lead ECG); assay type: in vivo, human
Protocol: Subjects were rested for at least 20 min before ECG measurements were taken (ECG‐1250 K, Nihon Kohden, Japan). 12‐lead ECG measurements were performed twice before drug administration, and at 1, 2, 4, 8, 12, and 24 h after each study drug administration. The ECGs were recorded at 10 mm mV^–1 sensitivity, and 25 mm s^–1 paper speed. Automatic readouts of all ECG measurements were collected but all ECGs with a reported QT interval greater than 450 ms were manually adjudicated by a research physician (unblinded) and a cardiologist (blinded). Other abnormal ECG waveforms were read by a cardiologist. Observed QT intervals were later corrected for heart rate by both the Fridericia and Bazett formulae 24. Data‐driven individual and study population correction factors were also evaluated (see section on methodology, below).
The observed QT interval must be corrected for heart rate in order to compare QT intervals between and within patients. Observed QT measurements were corrected by the traditionally used Bazett and Fridericia formulae (i.e. fixing the exponent (α) to 1/2 and 1/3, respectively, in Equation (5)). Furthermore, all observed individual QT and RR intervals from the placebo arm (i.e. primaquine‐alone arm) in a subject were used to determine the optimal individual QT correction factor (α) for each subject using ordinary least‐squares fit (Equation (5)). The calculated individual correction factor for a particular subject was then applied to all measured QT intervals for that subject, in order to generate corrected QT intervals (QTc) 24.
The appropriateness of the applied correction methods was evaluated by individual linear regression analysis of QTc vs. RR. The relationship between piperaquine drug concentrations and QRS, JT (i.e. QT – QRS) and QT intervals was evaluated with ordinary linear regression to assess the most appropriate modelling approach.
Double‐delta corrections are commonly performed to adjust for the observed circadian rhythm of ECG measurements 37. Thus, double‐delta‐corrected QTc prolongations (ΔΔQTc) were calculated by subtracting the placebo arm ΔQTc from the treatment arm ΔQTc, as in Equation (7). The primaquine‐alone arm was used as the placebo arm.
Calculated ΔΔQTc‐prolongations were used as the pharmacodynamic endpoint. Individually predicted piperaquine concentrations (CP) were obtained from imputing individual pharmacokinetic parameter estimates directly into the pharmacodynamic model. The relationship between drug exposure and QT prolongation was evaluated initially by a linear direct‐response pharmacodynamic model, as in Equation (8).
(8) ΔΔQTc=θ1+η1+θ2×CPt+εi where θ1 represents the typical baseline ΔΔQTc prolongation, η1 is the normally distributed between‐subject variability, θ2 is the slope of the exposure–response relationship and εi is the normally distributed residual error. Different exposure–response relationships (i.e. power model and EMAX model) were also investigated during the model development process. Hysteresis was investigated to account for a possible delayed exposure–response relationship (i.e. turn‐over and link models).
Age, gender, electrolyte levels (i.e. potassium and sodium) at admission and concomitant primaquine administration were evaluated as linear covariates on the piperaquine‐related ΔΔQTc prolongation, using a stepwise addition–deletion approach (as described above). Model evaluation and diagnostics were performed in the same manner as for the pharmacokinetic modelling approach.

[3] = cited from earlier work
[4] = F fixed to 100% for the population
[5] = human, with primaquine, Bayesian post hoc estimates
[6] = human, with primaquine, Bayesian post hoc estimates, read-out: t1/2 (terminal half-life), median (range) (converted)
[7] = human, without primaquine, Bayesian post hoc estimates
[8] = human, without primaquine, Bayesian post hoc estimates, read-out: t1/2 (terminal half-life), median (range) (converted)
[9] = healthy volunteers, typical individual 64 kg
[10] = healthy volunteers, typical individual 64 kg, three-compartment model
[11] = full covariate approach, 95% CI included zero effect
[12] = healthy volunteers, typical individual 64 kg, two-compartment model

Clc1ccc2c(N3CCN(CCCN4CCN(c5ccnc6cc(Cl)ccc56)CC4)CC3)ccnc2c1 [piperaquine]
Between-occasion variability of F (relative bioavailability), %CV (%RSE) [1, 4]: 19.1% (13.3%) ^*
Between-subject variability of F (relative bioavailability), %CV (%RSE) [1, 4]: 17.9% (34.0%)
Cmax [1, 5]: 300 ng/mL
Tmax [1, 5]: 3.98 h
half-life [1, 6]: 530 h
Cmax [1, 7]: 332 ng/mL
Tmax [1, 7]: 3.76 h
half-life [1, 8]: 530 h
MTT (mean transit time), population estimate (%RSE) [1, 9]: 3.13 (9.42%) h
CL/F (oral clearance), population estimate (%RSE) [1, 9]: 27.4 (5.50%) l h^-1
VC/F (apparent central volume of distribution), population estimate (%RSE) [1, 9]: 751 (23.5%) l
QP1/F (inter-compartment clearance), population estimate (%RSE) [1, 10]: 206 (9.56%) l h^-1
QP2/F (inter-compartment clearance), population estimate (%RSE) [1, 10]: 71.5 (9.01%) l h^-1
VP1/F (apparent peripheral volume of distribution), population estimate (%RSE) [1, 10]: 1900 (8.23%) l
Between-occasion variability of MTT, %CV (%RSE) ([1]; human, in vivo): 32.2% (13.4%) ^*
Between-subject variability of CL/F, %CV (%RSE) ([1]; human, in vivo): 10.9% (37.2%)
Between-subject variability of QP2/F, %CV (%RSE) ([1]; human, in vivo): 24.1% (36.3%)
Between-subject variability of VC/F, %CV (%RSE) ([1]; human, in vivo): 42.4% (40.9%)
Variability in the absorption characteristics ([1]; human, in vivo): below 35%
Day 7 conc., median (range) ([1]; with primaquine, Bayesian post hoc estimates): 16.7 (13.8–28.9) ng ml^-1
Day 7 conc., median (range) ([1]; without primaquine, Bayesian post hoc estimates): 18.3 (10.5–34.9) ng ml^-1
Median decrease in central volume of distribution during concomitant primaquine [2, 11]: 37.3% (95% CI −67.6%, 33.7%)
Median increase in mean transit absorption time during concomitant primaquine [2, 11]: 26.8% (95% CI −21.2%, 62.5%)
Effect of primaquine coadministration on pharmacokinetic properties [2]: did not affect the pharmacokinetic properties; also recorded: did not have a significant impact
SLOPE (slope of the relationship between piperaquine concentration and ΔΔQTc prolongation), population estimate (%RSE) (QT interval; linear direct-response model, healthy volunteers): 0.0417 (12.5%) ms (ng ml^-1)^-1
Relationship between piperaquine drug concentrations and ΔQRS (QT interval; ordinary linear regression, P = 0.520): no significant relationship
Population mean increase in ΔΔQTc (QT interval) per 100 ng ml^-1 increase in piperaquine plasma concentration (QT interval; per 100 ng ml^-1, individually corrected QT, healthy volunteers): 4.17 ms
Terminal elimination half-life ([3]; introduction): 480 to 720 h
Increase in piperaquine trough concentrations at week 36 compared with week 4 ([3]; repeated bimonthly treatment doses): 267% (range 146–381%)
Increase in piperaquine trough concentrations at week 36 compared with week 4 ([3]; repeated monthly treatment doses): 336% (range 271–402%)
Median maximum piperaquine concentration ([3]; standard 3-day regimen of 50 mg kg^-1, pregnant and nonpregnant women with uncomplicated P. falciparum malaria): 244 ng/mL

COc1cc(NC(C)CCCN)c2ncccc2c1 (centres unmarked) [primaquine]
Relationship between ΔQTc and primaquine concentrations (QT interval; primaquine-alone arm, 30 mg base, ordinary linear regression): no correlation; also recorded: no impact on ventricular repolarization
Effect of primaquine on the piperaquine exposure-QTc prolongation relationship (QT interval; stepwise covariate approach): did not affect the relationship

C[C@H]1[C@@H](O)O[C@@H]2O[C@@]3(C)CC[C@H]4[C@H](C)CC[C@@H]1[C@@]24OO3 [dihydroartemisinin]
half-life ([1]; human, three-compartment model, not carried forward, read-out: Median terminal half-life from the three-compartment model (converted)): 3.11 h
AUC [1, 5]: 798 ng·h/mL
Cmax [1, 5]: 357 ng/mL
Tmax [1, 5]: 1.27 h
half-life [1, 6]: 2.2 h
AUC [1, 7]: 767 ng·h/mL
Cmax [1, 7]: 361 ng/mL
Tmax [1, 7]: 1.3 h
half-life [1, 8]: 2.2 h
MTT (mean transit time), population estimate (%RSE) [1, 9]: 0.567 (11.4%) h
CL/F (oral clearance), population estimate (%RSE) [1, 9]: 148 (10.6%) l h^-1
VC/F (apparent central volume of distribution), population estimate (%RSE) [1, 9]: 214 (16.9%) l
ka (absorption rate constant from last transit compartment to central compartment), population estimate (%RSE) [1, 9]: 2.89 (37.1%) h^-1
QP/F (inter-compartment clearance), population estimate (%RSE) [1, 12]: 28.5 (26.0%) l h^-1
VP/F (apparent peripheral volume of distribution), population estimate (%RSE) [1, 12]: 65.9 (19.1%) l
Between-occasion variability of ka, %CV (%RSE) ([1]; human, in vivo): 89.0% (23.7%) ^*
Between-occasion variability of ka, %CV (%RSE) ([1]; human, in vivo, listed as DHA): 89.0%
Effect of primaquine coadministration on pharmacokinetic properties ([2]; listed as DHA): did not affect the pharmacokinetic properties; also recorded: did not have a significant impact
Elimination half-life [3]: 1 to 2 h
Terminal half-life in previous reports [3]: 8.7 to 150 min

Source: article PMC5698590 (British Journal of Clinical Pharmacology, 2017)
